Results reported in US10722520B2, “Heterocyclic compounds and their use in preventing or treating bacterial infections” (MUTABILIS, priority 2016, dated 2020).

How the values were obtained:
TEM-1 = TEM-1 (Escherichia coli, UniProt P62593)
E. coli 131119 = assay: MIC of compound alone, broth microdilution; type: cell-based; conditions: Escherichia coli; strain 131119: E. coli; TEM-1, OXA-48; read-out: MIC compounds of the invention alone
How it was run: (§1)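 Step one, log-phase suspension set to 5×10^5 cfu/mL final in CA-MHB. Step two, incubation at 35° C under ambient air for 16-20 h. Step three, visual reading of the lowest growth-free concentration as MIC.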

E. coli UFR74 = assay: MIC of compound alone, broth microdilution; type: cell-based; conditions: Escherichia coli; strain UFR74: E. coli; SHV-1, DHA-1; read-out: MIC compounds of the invention alone
How it was run: as §1

E. coli UFR18 = assay: MIC of compound alone, broth microdilution; type: cell-based; conditions: Escherichia coli; strain UFR18: E. coli; CTX-M-15, OXA-204; read-out: MIC compounds of the invention alone
How it was run: as §1

E. coli UFR41 = assay: MIC of compound alone, broth microdilution; type: cell-based; conditions: Escherichia coli; strain UFR41: E. coli; TEM-1, CTX-M-15, CMY-2, OXA-1, NDM-4; read-out: MIC compounds of the invention alone
How it was run: as §1

E. coli UFR32 = assay: MIC of compound alone, broth microdilution; type: cell-based; conditions: Escherichia coli; strain UFR32: E. coli; TEM-1, VEB-1, OXA-10; read-out: MIC compounds of the invention alone
How it was run: as §1

E. coli 190317 = assay: MIC of compound alone, broth microdilution; type: cell-based; conditions: Escherichia coli; strain 190317: E. coli; TEM-1, SHV-12, CTX-M-15, OXA-1; read-out: MIC compounds of the invention alone
How it was run: as §1

E. coli UFR61O = assay: MIC of compound alone, broth microdilution; type: cell-based; conditions: Escherichia coli; strain UFR61O: E. coli; TEM-1, KPC-2; read-out: MIC compounds of the invention alone
How it was run: as §1

K. pneumoniae 160143 = assay: MIC of compound alone, broth microdilution; type: cell-based; conditions: Klebsiella pneumoniae; strain 160143: K. pneumoniae; TEM-1, SHV-1, CTX-M-15, KPC-2, OXA-1; read-out: MIC compounds of the invention alone
How it was run: as §1

K. pneumoniae UFR68 = assay: MIC of compound alone, broth microdilution; type: cell-based; conditions: Klebsiella pneumoniae; strain UFR68: K. pneumoniae; TEM-1, SHV-11, CTX-M-15, KPC-3; read-out: MIC compounds of the invention alone
How it was run: as §1

P. aeruginosa CIP107051 = assay: MIC of compound alone, broth microdilution; type: cell-based; conditions: Pseudomonas aeruginosa; strain CIP107051: P. aeruginosa; TEM-24; read-out: MIC compounds of the invention alone
How it was run: as §1

E. cloacae 260508 = assay: MIC of compound alone, broth microdilution; type: cell-based; conditions: Enterobacter cloacae; strain 260508: E. cloacae; TEM-1, CTX-M-15; read-out: MIC compounds of the invention alone
How it was run: as §1

K. pneumoniae 200047 = assay: MIC of compound alone, broth microdilution; type: cell-based; conditions: Klebsiella pneumoniae; strain 200047: K. pneumoniae; TEM-1, SHV-32, CTX-M-15, OXA-1; read-out: MIC compounds of the invention alone
How it was run: as §1

E. cloacae UFR51 = assay: MIC of compound alone, broth microdilution; type: cell-based; conditions: Enterobacter cloacae; strain UFR51: E. cloacae; SHV-12, IMP-8; read-out: MIC compounds of the invention alone
How it was run: as §1

E. cloacae UFR70 = assay: MIC of compound alone, broth microdilution; type: cell-based; conditions: Enterobacter cloacae; strain UFR70: E. cloacae; TEM-1, CTX-M-15, CMY-2, OXA-1, Porin loss; read-out: MIC compounds of the invention alone
How it was run: as §1

E. coli UFR39 = assay: MIC of compound alone, broth microdilution; type: cell-based; conditions: Escherichia coli, UFR39, read-out: MIC compounds of the invention alone
How it was run: as §1

K. pneumoniae UFR77 = assay: MIC of compound alone, broth microdilution; type: cell-based; conditions: Klebsiella pneumoniae; strain UFR77: K. pneumoniae; CMY-2; read-out: MIC compounds of the invention alone
How it was run: as §1

K. oxytoca UFR21 = assay: MIC of compound alone, broth microdilution; type: cell-based; conditions: Klebsiella oxytoca; strain UFR21: K. oxytoca; TEM-1, CTX-M-15, OXA-48; read-out: MIC compounds of the invention alone
How it was run: as §1

E. cloacae UFR85 = assay: MIC of compound alone, broth microdilution; type: cell-based; conditions: Enterobacter cloacae; strain UFR85: E. cloacae; TEM-1, CTX-M-15, AmpC; read-out: MIC compounds of the invention alone
How it was run: as §1

OXA-15 = OXA-15 (Pseudomonas aeruginosa, UniProt Q51574); assay: biochemical
SHV-1 = SHV-1 (Klebsiella pneumoniae, UniProt P0AD64)
E. coli RGN238 = assay: microbe, parasite or virus in culture; type: cell-based; conditions: Escherichia coli, RGN238, read-out: MIC compounds of the invention alone
Description: Log phase bacterial suspensions were adjusted to a final density of 5×10^5 cfu/mL in cation-adjusted Mueller-Hinton broth (Becton-Dickinson) and added to each well (98 μL). Microplates were incubated for 16-20 h at 35° C. in ambient air. The MIC of the compounds was defined as the lowest concentration of said compounds that prevented bacterial growth as read by visual inspection.

CTX-M-15 = CTX-M-15 (Escherichia coli, UniProt Q9EXV5)
OXA-1 = OXA-1 (Escherichia coli, UniProt P13661)
CMY-37 = CMY-37 (Citrobacter freundii, UniProt P05193); conditions: read-out: IC50 β-lactamase CMY-37
AmpC (P99) = AmpC (P99) (Enterobacter cloacae, UniProt P05364); assay: biochemical
KPC-2 = KPC-2 (Klebsiella pneumoniae, UniProt Q9F663)

## O=C1N2CC(n3ccsc3=O)=CC(C2)N1OS(=O)(=O)[O-].[Na+] (stereo not drawn) [Example 1, Sodium [7-oxo-3-(2-oxo-thiazol-3-yl)-1,6-diaza-bicyclo[3.2.1]oct-3-en-6-yl]sulfate]
TEM-1
  IC50: 0.25 nM
E. coli 131119
  MIC: 2 µg/mL
E. coli UFR74
  MIC: 16 µg/mL
E. coli UFR18
  MIC: 2 µg/mL
E. coli UFR41
  MIC: 4 µg/mL
E. coli UFR32
  MIC: 4 µg/mL
E. coli 190317
  MIC: 2 µg/mL
E. coli UFR61O
  MIC: 16 µg/mL
K. pneumoniae 160143
  MIC: 4 µg/mL
K. pneumoniae UFR68
  MIC: 8 µg/mL
P. aeruginosa CIP107051
  MIC: > 32 µg/mL
E. cloacae 260508
  MIC: 4 µg/mL
K. pneumoniae 200047
  MIC: 8 µg/mL
E. cloacae UFR51
  MIC: 4 µg/mL
E. cloacae UFR70
  MIC: 4 µg/mL
E. coli UFR39
  MIC: 2 µg/mL
K. pneumoniae UFR77
  MIC: 8 µg/mL
K. oxytoca UFR21
  MIC: 8 µg/mL
E. cloacae UFR85
  MIC: 4 µg/mL
OXA-15
  IC50: 92 nM
SHV-1
  IC50: 1.5 nM
E. coli RGN238
  MIC: 8 µg/mL
CTX-M-15
  IC50: 0.55 nM
OXA-1
  IC50: 120 nM
CMY-37
  IC50: 33 nM
AmpC (P99)
  IC50: 30 nM
KPC-2
  IC50: 13 nM
